Measured values reported in the supplement of paper PMC10307832.

Key:
Experiment in all cases: relative viability (nuclei count vs DMSO), 5 days (fraction); higher = more cells survive
Olaparib + Phenformin = compound: O=C(c1cc(Cc2n[nH]c(=O)c3ccccc23)ccc1F)N1CCN(C(=O)C2CC2)CC1 [Olaparib] + N=C(N)NC(=N)NCCc1ccccc1 [Phenformin] (partner 250 µM)
How it was run: (§1)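 For relative viability, nuclei counts in treated wells were divided by those in vehicle wells. Lung cancer cell lines had been pin-tool dosed in 1536-well plates the day after seeding and cultured for 5 days, then fixed and stained in one step (final 0.05% Triton X-100, 1% formaldehyde, 1 ug/ml Hoechst) and imaged at 4×. Doses were one drug alone or a fixed anchor-drug dose plus five library-drug doses (not always all listed) in √10 steps, and values are duplicate-plate medians.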

Carfilzomib + Alpelisib = compound: CC(C)C[C@H](NC(=O)[C@H](CCc1ccccc1)NC(=O)CN1CCOCC1)C(=O)N[C@@H](Cc1ccccc1)C(=O)N[C@@H](CC(C)C)C(=O)[C@@]1(C)CO1 [Carfilzomib] + Cc1nc(NC(=O)N2CCC[C@H]2C(N)=O)sc1-c1ccnc(C(C)(C)C(F)(F)F)c1 [Alpelisib] (partner 2 µM)
How it was run: as §1

Carfilzomib + Lapatinib = compound: CC(C)C[C@H](NC(=O)[C@H](CCc1ccccc1)NC(=O)CN1CCOCC1)C(=O)N[C@@H](Cc1ccccc1)C(=O)N[C@@H](CC(C)C)C(=O)[C@@]1(C)CO1 [Carfilzomib] + CS(=O)(=O)CCNCc1ccc(-c2ccc3ncnc(Nc4ccc(OCc5cccc(F)c5)c(Cl)c4)c3c2)o1 [Lapatinib] (partner 2 µM)
How it was run: as §1

Crizotinib + Tozasertib = compound: C[C@@H](Oc1cc(-c2cnn(C3CCNCC3)c2)cnc1N)c1c(Cl)ccc(F)c1Cl [Crizotinib] + Cc1cc(Nc2cc(N3CCN(C)CC3)nc(Sc3ccc(NC(=O)C4CC4)cc3)n2)n[nH]1 [Tozasertib] (partner 0.1 µM)
How it was run: as §1

Row | Cell Line | relative viability (Olaparib + Phenformin; first compound 0.08 µM) | relative viability (Olaparib + Phenformin; first compound 0.253 µM) | relative viability (Olaparib + Phenformin; first compound 2.53 µM) | relative viability (Olaparib + Phenformin; first compound 8 µM) | relative viability (Carfilzomib + Alpelisib; first compound 0.001 µM) | relative viability (Carfilzomib + Alpelisib; first compound 0.003162 µM) | relative viability (Carfilzomib + Alpelisib; first compound 0.01 µM) | relative viability (Carfilzomib + Alpelisib; first compound 0.03162 µM) | relative viability (Carfilzomib + Alpelisib; first compound 0.1 µM) | relative viability (Carfilzomib + Lapatinib; first compound 0.001 µM) | relative viability (Carfilzomib + Lapatinib; first compound 0.003162 µM) | relative viability (Carfilzomib + Lapatinib; first compound 0.01 µM) | relative viability (Carfilzomib + Lapatinib; first compound 0.03162 µM) | relative viability (Carfilzomib + Lapatinib; first compound 0.1 µM) | relative viability (Crizotinib + Tozasertib; first compound 0.01 µM) | relative viability (Crizotinib + Tozasertib; first compound 0.03162 µM) | relative viability (Crizotinib + Tozasertib; first compound 0.1 µM) | relative viability (Crizotinib + Tozasertib; first compound 0.3162 µM) | relative viability (Crizotinib + Tozasertib; first compound 1 µM)
1 | NCI-H1355 | 0.478 | 0.433 | 0.47 | 0.432 | 0.753 | 0.767 | 0.737 | 0.584 | 0.139 | 0.872 | 1.08 | 1.08 | 0.941 | 0.168 | 0.568 | 0.545 | 0.555 | 0.515 | 0.598
2 | NCI-H1395 | 0.419 | 0.4 | 0.423 | 0.396 | 0.995 | 1.27 | 1.19 | 0.335 | 0.356 | 0.897 | 1.55 | 0.841 | 0.318 | 0.311 | 0.67 | 0.734 | 0.764 | 0.738 | 0.74
3 | NCI-H1437 | 0.301 | 0.27 | 0.279 | 0.296 | 0.982 | 1.01 | 0.943 | 0.54 | 0.101 | 0.78 | 0.931 | 0.832 | 0.431 | 0.139 | 0.379 | 0.409 | 0.406 | 0.384 | 0.374
4 | NCI-H1651 | 0.365 | 0.326 | 0.234 | 0.195 | 0.927 | 0.881 | 0.725 | 0.0951 | 0.0668 | 0.696 | 0.742 | 0.16 | 0.113 | 0.101 | 0.697 | 0.7 | 0.701 | 0.723 | 0.621
5 | NCI-H1666 | 0.575 | 0.545 | 0.502 | 0.523 | 1.06 | 1.05 | 1.03 | 0.3 | 0.231 | 0.611 | 0.755 | 0.747 | 0.407 | 0.193 | 0.547 | 0.586 | 0.665 | 0.648 | 0.539
6 | NCI-H1734 | 0.46 | 0.325 | 0.35 | 0.372 | 0.695 | 0.832 | 0.69 | 0.367 | 0.165 | 1.03 | 1.11 | 1.02 | 0.317 | 0.203 | 0.247 | 0.27 | 0.253 | – | 0.257
7 | NCI-H1755 | 0.62 | 0.593 | 0.592 | 0.575 | 0.917 | 0.948 | 0.925 | 0.601 | 0.202 | 1.05 | 1.12 | 1.02 | 0.922 | 0.279 | 0.614 | 0.563 | 0.617 | 0.467 | 0.549
8 | NCI-H1915 | 0.393 | 0.347 | 0.344 | 0.288 | 1.05 | 1.1 | 1.04 | 0.689 | 0.0648 | 0.937 | 1.02 | 0.973 | 0.586 | 0.0673 | 0.49 | 0.463 | 0.439 | – | 0.382
9 | NCI-H1944 | 0.189 | 0.184 | 0.202 | 0.192 | 0.776 | 0.877 | 0.776 | 0.938 | 0.304 | 0.762 | 0.858 | 0.7 | 0.793 | 0.326 | 0.254 | 0.248 | 0.252 | 0.247 | 0.254
10 | NCI-H1975 | 0.437 | 0.385 | 0.414 | 0.408 | 0.584 | 0.646 | 0.281 | 0.117 | 0.126 | 0.76 | 0.911 | 0.389 | 0.116 | 0.135 | 0.644 | 0.705 | 0.782 | 0.705 | 0.746
11 | NCI-H1993 | 0.529 | 0.511 | 0.501 | 0.447 | 0.717 | 0.654 | 0.765 | 0.521 | 0.483 | 0.729 | 0.89 | 0.704 | 0.632 | 0.493 | 0.558 | 0.538 | 0.552 | 0.588 | 0.588
12 | NCI-H2009 | 0.557 | 0.49 | 0.438 | 0.386 | 1.24 | 1.21 | 1.21 | 0.959 | 0.0547 | 1.02 | 1.37 | 0.828 | 0.0609 | 0.0756 | 0.746 | 0.712 | 0.731 | 0.678 | 0.665
13 | NCI-H2023 | 0.466 | 0.36 | 0.391 | 0.359 | 0.605 | 0.539 | 0.732 | 0.488 | 0.0793 | 0.734 | 0.979 | 0.925 | 0.302 | 0.0574 | 0.356 | 0.284 | 0.293 | 0.241 | 0.271
14 | NCI-H2085 | 0.837 | 0.69 | 0.682 | 0.625 | 0.978 | 1.1 | 0.908 | 0.43 | 0.282 | 0.663 | 0.843 | 0.714 | 0.444 | 0.252 | 0.763 | 0.801 | 0.775 | – | 0.884
15 | NCI-H2087 | 0.633 | 0.42 | 0.436 | 0.383 | 1.13 | 1.25 | 0.83 | 0.0689 | 0.0648 | 0.823 | 1.35 | 0.829 | 0.112 | 0.116 | 0.254 | 0.213 | 0.254 | – | 0.274
16 | NCI-H2126 | 0.615 | 0.549 | 0.506 | 0.588 | 0.683 | 0.787 | 0.792 | 0.774 | 0.563 | 0.75 | 0.798 | 0.784 | 0.765 | 0.513 | 0.721 | 0.813 | 0.819 | 0.8 | 0.808
17 | NCI-H2170 | 0.458 | 0.355 | 0.431 | 0.385 | 0.801 | 0.775 | 0.875 | 0.659 | 0.24 | 0.264 | 0.263 | 0.269 | 0.312 | 0.207 | 0.683 | 0.793 | 0.669 | 0.792 | 0.681
18 | NCI-H2228 | 0.333 | 0.276 | 0.287 | 0.345 | 0.662 | 0.73 | 0.49 | 0.108 | 0.156 | 1.28 | 1.23 | 0.752 | 0.104 | 0.161 | 0.237 | 0.229 | 0.172 | 0.209 | 0.182
19 | NCI-H2347 | 0.458 | 0.339 | 0.313 | 0.347 | 0.96 | 1.18 | 1.05 | 0.875 | 0.345 | 0.976 | 1.09 | 0.979 | 0.306 | 0.51 | 0.462 | 0.564 | 0.615 | 0.527 | 0.422
20 | NCI-H2405 | 0.432 | 0.373 | 0.388 | 0.426 | – | 1.13 | 0.777 | 0.312 | 0.168 | – | 1.42 | 1.05 | 0.645 | 0.152 | 0.702 | 0.811 | 0.761 | 0.706 | 0.697
21 | NCI-H3122 | 0.425 | 0.362 | 0.344 | 0.306 | 0.748 | 0.847 | 0.748 | 0.959 | 0.69 | 1.03 | 0.942 | 1.09 | 0.978 | 0.806 | 0.404 | 0.34 | 0.457 | 0.181 | 0.154
22 | PC-3 [JPC-3] | 0.486 | 0.458 | 0.481 | 0.423 | 1.07 | 1.08 | 1.02 | 0.824 | 0.257 | 0.42 | 0.455 | 0.463 | 0.435 | 0.209 | 0.834 | 0.878 | 0.934 | 0.836 | 0.855
23 | PC-14 | 0.79 | 0.384 | 0.609 | 0.519 | 0.958 | 0.981 | 0.976 | 0.0805 | 0.0691 | 0.372 | 0.301 | 0.317 | 0.301 | 0.0926 | 0.545 | 0.625 | 0.624 | 0.593 | 0.602
24 | RERF-LC-KJ | 0.406 | 0.465 | 0.433 | 0.51 | 0.847 | 0.873 | 0.842 | 0.645 | 0.227 | 0.845 | 0.836 | 0.894 | 0.841 | 0.378 | 0.455 | 0.516 | 0.49 | 0.477 | 0.527
25 | SK-LU-1 | 0.612 | 0.473 | 0.569 | 0.365 | 1.05 | 1 | 0.712 | 0.182 | 0.143 | 0.931 | 0.944 | 0.729 | 0.127 | 0.191 | 0.287 | 0.373 | 0.328 | 0.334 | 0.27
26 | SK-MES-1 | 0.745 | 0.56 | 0.628 | 0.484 | 0.867 | 1.04 | 0.992 | 0.782 | 0.162 | 0.451 | 0.469 | 0.443 | 0.43 | 0.267 | 0.844 | 0.905 | 0.87 | 0.808 | 0.845
27 | SW 1573 | 0.444 | 0.373 | 0.266 | 0.258 | 0.731 | 0.835 | 0.642 | 0.19 | 0.096 | 1.17 | 1.22 | 1.04 | 1.03 | 0.121 | 0.178 | 0.216 | 0.188 | 0.198 | 0.162
28 | UMC-11 | 0.36 | 0.31 | 0.294 | 0.229 | 1.01 | 0.976 | 0.947 | 1.03 | 0.152 | 0.857 | 1.02 | 0.783 | 0.509 | 0.182 | 0.185 | 0.184 | 0.192 | – | 0.208
